# Reference: patent US10456407B2, “Combination therapy for treating cancer” (Epizyme, Inc., priority 2015, dated 2019)
# Where two headings read alike, the source gives them in different places.
# Key:
# [1] = test system: H3K27me3; conditions: 4 days
# Protocol: Histones were extracted from tumor samples as described above. […] The plates were sealed and incubated overnight at 4° C. The following day, plates were washed 3× with 300 ul/well PBST (PBS+0.05% Tween 20; 10×PBST, KPL #51-14-02) on a Bio Tek plate washer. Plates were blocked with 300 ul/well of diluent (PBS+2% BSA+0.05% Tween 20), incubated at RT for 2 hours, and washed 3× with PBST. All antibodies were diluted in diluent. […] Plates were incubated for 90 min at RT and washed 3× with PBST. […] Plates were washed 4× with PBST. For detection, 100 ul/well of TMB substrate (BioFx Laboratories, #TMBS) was added and plates incubated in the dark at RT for 5 min. Reaction was stopped with 100 ul/well IN H2SO4 Absorbance at 450 nm was read on SpectaMax M5 Microplate reader.
# [2] = test system: Toledo cells; conditions: Toledo (WT EZH2 ABC); drug combined with Compound 44
# Protocol: (§1) After 3 days of co-treatment, cell viability was measured via ATP content using CellTiter-Glo®
# (§2) Synergy quantification is performed using the Chou-Talalay method^3 for drug combination. The Combination Index (CI) equation offers a quantitative definition for additivity (CI=1), synergism (CI<1), and antagonism (CI>1). This equation used Fa values from a constant ratio of drug combination to determine CI values. […] These Fa-CI plots are generated using the Calcusyn software.
# (§3) After 3 days of co-treatment (5 days for Toledo assays), cell viability was measured via ATP content using CellTiter-Glo® (Promega) and luminescence was detected using a SpectraMax M5 microplate reader (Molecular Devices).
# as §2, with “Chou-Talalay method” for “Chou-Talalay method^3”, “drug combination (Ref 1).” for “drug combination.”, “used fractional effect (Fa)” for “used Fa”, “Calcusyn for Windows software (Ref2).” for “Calcusyn software.”
# (§4) Dose responses were plotted using Graphpad Prism and either 50% or 60% inhibitory concentrations were interpolated from the dose response curves.
# [3] = test system: WSU-DLCL2 cells
# Protocol: as §1, §2, §3
# as §2, with “Chou-Talalay method” for “Chou-Talalay method^3”, “drug combination (Ref 1).” for “drug combination.”, “used fractional effect (Fa)” for “used Fa”, “Calcusyn for Windows software (Ref2).” for “Calcusyn software.”
# as §4
# [4] = test system: SU-DHL10 cells
# Protocol: as §1, §2, §3
# as §2, with “Chou-Talalay method” for “Chou-Talalay method^3”, “drug combination (Ref 1).” for “drug combination.”, “used fractional effect (Fa)” for “used Fa”, “Calcusyn for Windows software (Ref2).” for “Calcusyn software.”
# as §4
# [5] = test system: DOHH2 cells; conditions: DOHH2 (WT EZH2 GCB); drug combined with Compound 44
# Protocol: as §1, §2, §3
# as §2, with “Chou-Talalay method” for “Chou-Talalay method^3”, “drug combination (Ref 1).” for “drug combination.”, “used fractional effect (Fa)” for “used Fa”, “Calcusyn for Windows software (Ref2).” for “Calcusyn software.”
# as §4
# [6] = test system: H3K27 acetylation; conditions: WSU-DLCL2, OCI-LY19, RL cells; 4 days
# [7] = test system: SU-DHL4 cells; test: RT2 Glucocorticoid signaling PCR array, SU-DHL4 (SUDHL4) cell line (Table 4f); type: cell-based; conditions: SUDHL4, 4 days, vs DMSO
structure (smiles),measurement,setting,value
"C[C@]12C=CC(=O)C=C1CC[C@@H]1[C@@H]2[C@@H](O)C[C@@]2(C)[C@H]1CC[C@]2(O)C(=O)CO [Prednisolone, prednisolone]",effect on H3K27 trimethylation (H3K27me3),"[1]; OCI-LY19 cells, at higher doses",modest increase
same,effect on H3K27 trimethylation (H3K27me3),[1]; RL cells,did not have any effect
same,effect on H3K27 trimethylation (H3K27me3),[1]; WSU-DLCL2 cells,did not have any effect
same,Summary of Combinations with Compound 44 (combination effect),[2],no effect
same,Summary of Combinations with Compound 44: potency enhanced,"[3]; WSU-DLCL2 (EZH2 mutant GCB), drug combined with Compound 44",potency enhanced 7x
same,growth inhibition by the drug by itself,"[3]; WSU-DLCL2, single agent",no sensitivity
same,Summary of Combinations with Compound 44: potency enhanced,"[4]; SU-DHL 10 (EZH2 mutant GCB), drug combined with Compound 44",potency enhanced 3x
same,growth inhibition by the drug by itself,"[4]; SU-DHL10, single agent",no sensitivity
same,Summary of Combinations with Compound 44: potency enhanced,[5],potency enhanced 2x
same,H3K27 acetylation levels,[6],not globally affected
same,"ΔΔCT, ADARB1",[7],−0.516
same,"ΔΔCT, AFF1",[7],−0.429
same,"ΔΔCT, AK2",[7],−1.076
same,"ΔΔCT, AMPD3",[7],−0.891
same,"ΔΔCT, ANGPTL4",[7],−1.047
same,"ΔΔCT, ANXA4",[7],−0.890
same,"ΔΔCT, ARID68",[7],−0.131
same,"ΔΔCT, ASPH",[7],−0.451
same,"ΔΔCT, ATF4",[7],−0.279
same,"ΔΔCT, CEBPA",[7],−0.301
same,"ΔΔCT, CREB1",[7],−0.548
same,"ΔΔCT, CREB3",[7],−0.560
same,"ΔΔCT, CREB3L4",[7],−0.199
same,"ΔΔCT, CYB561",[7],−0.720
same,"ΔΔCT, EHD3",[7],−1.325
same,"ΔΔCT, FK8PS",[7],−1.582
same,"ΔΔCT, GDPD1",[7],−0.409
same,"ΔΔCT, GHRHR",[7],0.184
same,"ΔΔCT, GOT1",[7],−0.402
same,"ΔΔCT, H6PD",[7],0.160
same,"ΔΔCT, HNRPLL",[7],−0.286
same,"ΔΔCT, IL6R",[7],−0.524
same,"ΔΔCT, IL10",[7],−0.130
same,"ΔΔCT, KLF9",[7],−0.821
same,"ΔΔCT, KLF13",[7],−0.934
same,"ΔΔCT, MT2A",[7],0.129
same,"ΔΔCT, NR3C1",[7],−0.427
same,"ΔΔCT, PDCD7",[7],0.403
same,"ΔΔCT, PER1",[7],−0.786
same,"ΔΔCT, PER2",[7],−1.101
same,"ΔΔCT, PIK3R1",[7],−0.892
same,"ΔΔCT, PLEKHF1",[7],−1.285
same,"ΔΔCT, POU2F1",[7],−0.432
same,"ΔΔCT, RGS2",[7],−0.372
same,"ΔΔCT, RHOB",[7],0.724
same,"ΔΔCT, SGK1",[7],−0.346
same,"ΔΔCT, SLC10A6",[7],−3.874
same,"ΔΔCT, SLC19A2",[7],−0.995
same,"ΔΔCT, SLC22A5",[7],−0.171
same,"ΔΔCT, SNTA1",[7],−0.687
same,"ΔΔCT, SPSB1",[7],0.068
same,"ΔΔCT, STAT5B",[7],−0.268
same,"ΔΔCT, TBL1XR1",[7],−0.721
same,"ΔΔCT, TNFAIP3",[7],0.835
same,"ΔΔCT, TSC22D3",[7],−2.169
same,"ΔΔCT, USP2",[7],−1.681
same,"ΔΔCT, USPS4",[7],−1.060
same,"ΔΔCT, ZFP36",[7],−0.541
same,"ΔΔCT, ZHX3",[7],−0.868
CCN(c1cc(-c2ccc(CN3CCOCC3)cc2)cc(C(=O)NCc2c(C)cc(C)[nH]c2=O)c1C)C1CCOCC1 [Compound 44],ΔΔCT MERTK,[7],1.977
same,"ΔΔCT, ADARB1",[7],−1.229
same,"ΔΔCT, AFF1",[7],−0.276
same,"ΔΔCT, AMPD3",[7],−1.449
same,"ΔΔCT, ANGPTL4",[7],−1.331
same,"ΔΔCT, ANXA4",[7],−2.419
same,"ΔΔCT, AQP1",[7],0.331
same,"ΔΔCT, ARID68",[7],−0.541
same,"ΔΔCT, ASPH",[7],−0.843
same,"ΔΔCT, ATF4",[7],0.146
same,"ΔΔCT, CEBPA",[7],−2.510
same,"ΔΔCT, CREB1",[7],−0.313
same,"ΔΔCT, CREB3",[7],−0.490
same,"ΔΔCT, CREB3L4",[7],−0.655
same,"ΔΔCT, CYB561",[7],−4.236
same,"ΔΔCT, EHD3",[7],−1.998
same,"ΔΔCT, FK8PS",[7],0.008
same,"ΔΔCT, GDPD1",[7],−1.356
same,"ΔΔCT, GOT1",[7],0.065
same,"ΔΔCT, H6PD",[7],−0.549
same,"ΔΔCT, HNRPLL",[7],−0.471
same,"ΔΔCT, IL6R",[7],−1.903
same,"ΔΔCT, IL10",[7],−1.895
same,"ΔΔCT, KLF9",[7],−1.293
same,"ΔΔCT, KLF13",[7],−0.534
same,"ΔΔCT, MT2A",[7],−0.309
same,"ΔΔCT, NR3C1",[7],−0.234
same,"ΔΔCT, PDCD7",[7],−0.127
same,"ΔΔCT, PER1",[7],−0.524
same,"ΔΔCT, PER2",[7],−0.854
same,"ΔΔCT, PIK3R1",[7],−0.502
same,"ΔΔCT, PLEKHF1",[7],−1.254
same,"ΔΔCT, POU2F1",[7],−0.575
same,"ΔΔCT, RGS2",[7],−0.632
same,"ΔΔCT, RHOB",[7],−1.561
same,"ΔΔCT, SESN1",[7],−2.258
same,"ΔΔCT, SLC10A6",[7],−4.180
same,"ΔΔCT, SLC19A2",[7],−1.612
same,"ΔΔCT, SLC22A5",[7],−0.775
same,"ΔΔCT, SNTA1",[7],−0.847
same,"ΔΔCT, SPSB1",[7],−0.624
same,"ΔΔCT, STAT5B",[7],−0.298
same,"ΔΔCT, TBL1XR1",[7],−0.456
same,"ΔΔCT, TNFAIP3",[7],0.339
same,"ΔΔCT, TSC22D3",[7],−0.002
same,"ΔΔCT, USP2",[7],−0.688
same,"ΔΔCT, USPS4",[7],6.193
same,"ΔΔCT, ZFP36",[7],−0.262
same,"ΔΔCT, ZHX3",[7],−1.047
